# Target: T1, GIVA cPLA2 (cPLA2α) (Homo sapiens, UniProt P47712)
# T1 construct: gene PLA2G4A
# T1 sequence (P47712 1-749): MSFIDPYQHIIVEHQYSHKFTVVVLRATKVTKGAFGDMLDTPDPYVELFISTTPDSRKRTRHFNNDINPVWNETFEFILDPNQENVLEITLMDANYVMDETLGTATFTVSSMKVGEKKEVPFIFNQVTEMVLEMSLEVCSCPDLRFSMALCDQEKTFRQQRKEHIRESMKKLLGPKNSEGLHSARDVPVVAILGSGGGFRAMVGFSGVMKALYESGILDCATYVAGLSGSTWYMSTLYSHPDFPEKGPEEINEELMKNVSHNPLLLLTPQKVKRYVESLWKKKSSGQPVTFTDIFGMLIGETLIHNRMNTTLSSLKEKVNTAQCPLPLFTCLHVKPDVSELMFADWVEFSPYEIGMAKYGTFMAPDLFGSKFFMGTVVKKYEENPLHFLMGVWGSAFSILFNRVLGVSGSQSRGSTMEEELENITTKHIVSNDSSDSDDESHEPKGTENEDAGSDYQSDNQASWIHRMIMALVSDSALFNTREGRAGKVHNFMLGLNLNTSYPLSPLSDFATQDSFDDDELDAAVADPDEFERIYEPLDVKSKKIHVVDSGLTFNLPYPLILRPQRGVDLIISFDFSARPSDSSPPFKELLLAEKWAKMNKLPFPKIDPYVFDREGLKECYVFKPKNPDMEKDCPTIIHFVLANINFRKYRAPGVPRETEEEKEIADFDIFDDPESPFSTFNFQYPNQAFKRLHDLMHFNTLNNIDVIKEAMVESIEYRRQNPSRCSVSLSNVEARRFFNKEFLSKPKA
# Assay: in vitro mixed micelle modified Dole assay ([…]-PAPC)
# Type: biochemical
structure (smiles),measurement,value
"CC/C=C\C/C=C\C/C=C\C/C=C\C/C=C\CCSCC(=O)C(F)(F)F [AVX002, 1,1,1-trifluoro-3-(((3Z,6Z,9Z,12Z,15Z)-octadeca-3,6,9,12,15-pentaen-1-yl)thio)propan-2-one]",In vitro enzyme activity / GIVA cPLA2 / XI(50),0.0057 ± 0.001 mole fraction (XI(50))
"CC/C=C\C/C=C\C/C=C\C/C=C\CC/C=C/CSCC(=O)C(F)(F)F [AVX001, (6E,10Z,13Z,16Z,19Z)-1,1,1-trifluoro-4-thiadocosa-6,10,13,16,19-pentaen-2-one]",In vitro enzyme activity / GIVA cPLA2 / XI(50),0.0072 ± 0.0007 mole fraction (XI(50))

# From article PMC6341602, “Cytosolic group IVA phospholipase A2 inhibitors, AVX001 and AVX002, ameliorate collagen-induced arthritis” (Arthritis Research & Therapy, 2019)
